Test results published in patent US9180088B2, “Fulvestrant formulations” (SCIDOSE, LLC, priority 2008, dated 2015).
≈ marks a conversion by molar mass, not a printed value. Each block holds one compound with its values, some of them ahead of it.

Assays:
[1] = solubility of fulvestrant in solvents; assay type: physicochemical
subplanar paw of the rat = experiment: rat paw lick test; assay type: in vivo; conditions: 0.1 ml of solvent system injected on the subplanar paw of the rat
Experimental: In this method 0.1 ml of the solvent system is injected on the subplanar paw of the rat and the irritation is measured by the number of time that rat licks its paw over 15 minutes. This is quite quantitative and the number licks correlate to the irritation of the system.

solubility ([1]; 20 mg/ml Lutrol in PEG 400 (2% Lutrol in PEG 400), organic solvent or mixture, in 20 mg/ml of Lutrol in PEG 400 (2% Lutrol in PEG 400)): 66.7 mg/mL (≈ 110 mM)
solubility ([1]; 20 mg/ml Lutrol in propylene glycol, organic solvent or mixture, in 20 mg/ml of Lutrol in PG): 22.7 mg/mL (≈ 37.4 mM)
solubility ([1]; 1,4-dioxane, organic solvent or mixture, in 1,4 Dioxan): 833 mg/mL (≈ 1370 mM)
solubility ([1]; 10% ethanol/0.9% benzyl alcohol/30% PEG 400 in water (v/v), aqueous with cosolvent or surfactant or cyclodextrin, in 10% Ethanol/0.9% Benzylalcohol/30% PEG 400 in Water (v/v)): 10 mg/mL (≈ 16.5 mM)
solubility ([1]; 20-50 mg/ml Lutrol in dihydrolipoic acid, organic solvent or mixture, in 20-50 mg/ml Lutrol in dihydrolipoic acid): > 350 mg/mL
solubility ([1]; 50% dihydrolipoic acid/50% lipoic acid, organic solvent or mixture, in 50% dihydrolipoic acid/50% lipoic acid): > 350 mg/mL
solubility ([1]; Lutrol/PEG400/propylene glycol blends, organic solvent or mixture, in the Lutrol/PEG400/propylene glycol blends): 50 mg/mL (≈ 82.4 mM)
solubility ([1]; N-methylpyrrolidone, organic solvent or mixture, in N-Methylpyrrolidone): 864 mg/mL (≈ 1420 mM)
solubility ([1]; PEG 400 + propylene glycol (1:1), organic solvent or mixture, in PEG 400 + PG (1:1)): 50 mg/mL
solubility ([1]; PEG-400 (neat), organic solvent or mixture, in PEG-400 (neat)): 22.5 mg/mL (≈ 37.1 mM)
solubility ([1]; aqueous with cosolvent or surfactant or cyclodextrin, in 10% Ethanol/0.9% Benzylalcohol/30% PEG 400/20 mg per ml Lecithin, in Water): 5 mg/mL (≈ 8.24 mM)
solubility ([1]; dihydrolipoic acid, organic solvent or mixture, in Dihydrolipoic acid): > 450 mg/mL
solubility ([1]; ethyl acetate, organic solvent or mixture, in Ethyl acetate): 7.8 mg/mL (≈ 12.9 mM)
solubility ([1]; glycofurol, organic solvent or mixture, in Glycofurol): 400 mg/mL (≈ 659 mM)
solubility of fulvestrant ([1]; in 0.9% Benzyl alcohol in Water): Insoluble
solubility of fulvestrant ([1]; in 2% Benzyl alcohol in Water): Insoluble
solubility of fulvestrant ([1]; in 10% Ethanol): Insoluble
solubility of fulvestrant ([1]; in 10% Ethanol (in water) + PEG 400 (1:1)): Insoluble
solubility of fulvestrant ([1]; in 30% Ethanol (in water)): Insoluble
solubility of fulvestrant ([1]; in 50% Ethanol (in water)): Insoluble
solubility of fulvestrant ([1]; in Aq.PVP K-30 solution (40 mg in 2 ml distil water)): Insoluble
solubility of fulvestrant ([1]; in Cetylalcohol): 20 mg/1 g
solubility of fulvestrant ([1]; in Fat emulsion): Insoluble
solubility of fulvestrant ([1]; in Hydroxy Ethyl Starch (10%)): Insoluble
solubility of fulvestrant ([1]; in Lauryl macrogol - 32 glyceride (Gelucire 44/14 by Gattefosse)): Insoluble
solubility of fulvestrant ([1]; in Lecithin (1%)): Insoluble
solubility of fulvestrant ([1]; in Peanut Oil): Insoluble
solubility of fulvestrant ([1]; in Poloxamer(Lutrol f-68) (2% sol in water)): Insoluble
solubility of fulvestrant ([1]; in Sodium Citrate (30 Mmol)): Insoluble
solubility of fulvestrant ([1]; in TPGS 1000): Insoluble
solubility of fulvestrant ([1]; in Tween 20 (1%)): Insoluble
solubility of fulvestrant ([1]; in Tween 80 (1%)): Insoluble
solubility ([1]; organic solvent or mixture, in 0.7 ml of (20 mg/ml of Lutrol in PEG 400) + 0.3 ml of Propylene Glycol): 50 mg/mL
solubility ([1]; organic solvent or mixture, in 0.8 ml of (20 mg/ml of Lutrol in PEG 400) + 0.2 ml of Propylene Glycol): 50 mg/mL
solubility ([1]; organic solvent or mixture, in 10% Ethanol/0.9% Benzylalcohol in PEG 400 (V/V, QS with PEG 400)): 10 mg/mL (≈ 16.5 mM)
solubility ([1]; propylene glycol (neat), organic solvent or mixture, in Propylene Glycol (neat)): 4 mg/mL (≈ 6.59 mM)
solubility ([1]; t-butanol, organic solvent or mixture, in T-butanol): 194 mg/mL (≈ 320 mM)
Compound: C[C@]12CC[C@@H]3c4ccc(O)cc4C[C@@H](CCCCCCCCC[S+]([O-])CCCC(F)(F)C(F)(F)F)[C@H]3[C@@H]1CC[C@@H]2O (stereo partly drawn) [fulvestrant, 7-alpha-[9-(4,4,5,5,5-pentafluoropentylsulphinyl)nonyl]estra-1,3,5-(10)-triene-3,17-beta-diol]

number of times rat licks its paw in first 15 minutes (subplanar paw of the rat; 15 minutes): Zero lick in first 15 minutes
Compound: Glycofurol [Test # 02]
IRRITABILITY (rating) (subplanar paw of the rat): No Irritation
